Test results taken from ChEMBL document CHEMBL1287717, “Design and synthesis of macrocyclic indoles targeting blood coagulation cascade Factor XIa” (Bioorg Med Chem Lett, 2010).
The source made the active and inactive calls. The rule behind the calls is not given here.

Experiments:
[1] = biological target: T1, Vitamin K-dependent protein C (Homo sapiens, UniProt P04070); experiment: Inhibition of activated protein C at 300 uM
Trypsin = Trypsin (Homo sapiens, UniProt P07477+P07478+P35030); experiment: Inhibition of human trypsin; assay type: protein assay
Prothrombin [2] = biological target: T2, Prothrombin (Homo sapiens, UniProt P00734); experiment: Inhibition of factor 2a at 300 uM
Coagulation factor XI [3] = biological target: T3, Coagulation factor XI (Homo sapiens, UniProt P03951); experiment: Inhibition of factor 11a
[4] = biological target: T1, Vitamin K-dependent protein C; experiment: Inhibition of activated protein C
Prothrombin [5] = biological target: T2, Prothrombin; experiment: Inhibition of factor 2a
Coagulation factor XI [6] = biological target: T3, Coagulation factor XI; experiment: Inhibition of factor 11a at 300 uM
[7] = biological target: Coagulation factor IX (Homo sapiens) (UniProt P00740); experiment: Inhibition of factor 9a at 300 uM
Coagulation factor IX (Homo sapiens), sequence (P00740 47-191 limits assumed): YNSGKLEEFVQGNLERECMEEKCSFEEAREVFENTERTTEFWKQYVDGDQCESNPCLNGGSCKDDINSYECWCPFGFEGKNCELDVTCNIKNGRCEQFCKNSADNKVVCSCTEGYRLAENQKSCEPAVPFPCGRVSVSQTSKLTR
Coagulation factor IX (Homo sapiens), sequence (P00740 227-461 limits assumed): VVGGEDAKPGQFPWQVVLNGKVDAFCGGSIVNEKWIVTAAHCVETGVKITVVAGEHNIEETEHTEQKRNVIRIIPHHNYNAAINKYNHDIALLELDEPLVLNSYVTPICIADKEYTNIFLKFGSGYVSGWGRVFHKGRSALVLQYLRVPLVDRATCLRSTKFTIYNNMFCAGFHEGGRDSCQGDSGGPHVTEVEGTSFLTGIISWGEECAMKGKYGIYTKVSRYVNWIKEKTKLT

T1 sequence (P04070 43-197 limits assumed): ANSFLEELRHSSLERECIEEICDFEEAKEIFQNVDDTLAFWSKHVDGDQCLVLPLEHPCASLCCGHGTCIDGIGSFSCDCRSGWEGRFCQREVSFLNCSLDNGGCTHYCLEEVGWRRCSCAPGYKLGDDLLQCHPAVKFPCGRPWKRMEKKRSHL
T1 sequence (P04070 212-461 limits assumed): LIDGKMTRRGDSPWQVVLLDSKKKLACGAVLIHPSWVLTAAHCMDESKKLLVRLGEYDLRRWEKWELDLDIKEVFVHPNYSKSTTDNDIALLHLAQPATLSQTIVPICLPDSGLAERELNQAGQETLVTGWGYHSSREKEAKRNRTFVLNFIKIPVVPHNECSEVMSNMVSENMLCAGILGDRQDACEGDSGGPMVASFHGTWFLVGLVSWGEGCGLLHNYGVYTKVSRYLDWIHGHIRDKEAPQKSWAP
T3 sequence (P03951 19-387 limits assumed): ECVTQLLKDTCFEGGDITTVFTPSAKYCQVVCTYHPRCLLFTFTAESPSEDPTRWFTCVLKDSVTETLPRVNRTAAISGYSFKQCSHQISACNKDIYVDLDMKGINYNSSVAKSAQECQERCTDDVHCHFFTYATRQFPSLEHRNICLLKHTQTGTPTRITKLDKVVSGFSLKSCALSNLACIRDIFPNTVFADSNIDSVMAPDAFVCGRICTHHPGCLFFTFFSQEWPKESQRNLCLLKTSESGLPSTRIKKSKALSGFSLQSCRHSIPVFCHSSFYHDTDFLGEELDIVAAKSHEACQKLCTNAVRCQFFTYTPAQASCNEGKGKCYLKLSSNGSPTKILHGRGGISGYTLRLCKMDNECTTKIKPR
T3 sequence (P03951 388-625 limits assumed): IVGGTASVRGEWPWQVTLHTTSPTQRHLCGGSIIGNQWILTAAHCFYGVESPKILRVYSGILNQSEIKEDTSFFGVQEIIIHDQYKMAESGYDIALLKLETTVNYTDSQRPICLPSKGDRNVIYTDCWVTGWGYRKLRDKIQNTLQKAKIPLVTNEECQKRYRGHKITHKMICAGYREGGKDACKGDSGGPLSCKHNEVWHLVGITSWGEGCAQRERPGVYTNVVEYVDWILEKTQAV

| inhibition [1] | IC50 (Trypsin) [µM] | Kic (Trypsin) [µM] | inhibition (Prothrombin [2]) | IC50 (Coagulation factor XI [3]) [µM] | Kic (Coagulation factor XI [3]) [µM] | IC50 [4] [µM] | Kic [4] [µM] | IC50 (Prothrombin [5]) [µM] | Structure (SMILES) | also measured |
| --- | --- | --- | --- | --- | --- | --- | --- | --- | --- | --- |
| inactive | 2.43 | 0.296 | inactive | 176 | 87.9 |  |  |  | CC(C)C[C@@H]1NC(=O)[C@@H](C2CCCCC2)NS(=O)(=O)CCCCCc2[nH]c3ccc(Cl)cc3c2CNC1=O |  |
|  | 0.16 | 0.02 | inactive | 146 | 73 | 103 | 82.8 |  | C=CCc1[nH]c2ccc(Cl)cc2c1CNC(=O)[C@H](CC(C)C)NC(=O)[C@H](NC(=O)[C@@H](CC=C)c1ccccc1)C1CCCCC1 |  |
|  |  |  |  |  |  |  |  | 0.0015 | NC(N)=NCCC[C@@H]1NC(=O)[C@@H]2CCCN2C(=O)[C@@H](NC=O)CNC(=O)/C=C/[C@H](Cc2ccc(O)cc2)NC(=O)[C@@H](Cc2ccccc2)NC(=O)C1=O [CYCLOTHEONAMIDE A] |  |
| inactive | 1.16 | 0.142 | inactive |  |  |  |  |  | C=CCCS(=O)(=O)N[C@@H](C(=O)N[C@@H](CC(C)C)C(=O)NCc1c(CC=C)[nH]c2ccc(Cl)cc12)C1CCCCC1 | inhibition (Coagulation factor XI [6]): inactive |
|  |  |  |  |  |  |  |  |  | CC(C)C[C@@H]1NC(=O)[C@@H](C2CCCCC2)NC(=O)CC/C=C/Cc2[nH]c3ccc(Cl)cc3c2CNC1=O | inhibition [7]: inactive |
|  | 10 | 1.22 |  |  |  | 395 | 316 | 10.6 | CC(C)C[C@@H]1NC(=O)[C@@H](C2CCCCC2)NC(=O)CCCCCc2[nH]c3ccc(Cl)cc3c2CNC1=O | inhibition (Coagulation factor XI [6]): inactive; Kic (Prothrombin [5]): 1.7 µM |
| inactive | 2.31 | 0.281 | inactive |  |  |  |  |  | CC(C)C[C@@H]1NC(=O)[C@@H](C2CCCCC2)NC(=O)[C@H](c2ccccc2)CCCCc2[nH]c3ccc(Cl)cc3c2CNC1=O | inhibition (Coagulation factor XI [6]): inactive |
|  |  |  |  |  |  |  |  | 0.0057 | CO[C@H](COS(=O)(=O)[O-])C(=O)N[C@@H](C(=O)N1[C@H](C(=O)NCCC2=CC[N+](=C(N)N)C2)C[C@@H]2C[C@H](O)[C@@H](O)C[C@@H]21)[C@H](Cl)C(C)C [CHLORODYSINOSIN A] |  |
| inactive | 2.69 | 0.328 |  | 768 | 384 |  |  | 67.9 | CC(C)C[C@@H]1NC(=O)[C@@H](C2CCCCC2)NS(=O)(=O)CC/C=C/Cc2[nH]c3ccc(Cl)cc3c2CNC1=O | Kic (Prothrombin [5]): 10.6 µM |
|  |  |  |  |  |  |  |  |  | O=C1Cn2c(Cl)cnc(c2=O)N[C@@H](Cc2ccccc2)CNCCCNCCc2ccc(Cl)cc2CN1 | Ki (Prothrombin [5]): 0.09 nM |
|  | 2.17 | 0.264 | inactive | 103 | 51.6 | 284 | 227 |  | C=CCCC(=O)N[C@@H](C(=O)N[C@@H](CC(C)C)C(=O)NCc1c(CC=C)[nH]c2ccc(Cl)cc12)C1CCCCC1 |  |
|  | 0.26 | 0.031 | inactive | 136 |  | 145 | 116 |  | CC(C)C[C@@H]1NC(=O)[C@@H](C2CCCCC2)NC(=O)[C@H](c2ccccc2)C/C=C/Cc2[nH]c3ccc(Cl)cc3c2CNC1=O |  |
|  |  |  |  |  |  |  |  | 8.7 | CCCCCC(=O)NCC(=O)N[C@H](C(=O)N[C@@H]1C(=O)N[C@@H](CCC(N)=O)C(=O)N[C@H]2CC[C@@H](O)N(C2=O)[C@@H](Cc2ccccc2)C(=O)N(C)[C@@H](Cc2c[nH]c3ccccc23)C(=O)N[C@@H](C(C)C)C(=O)O[C@@H]1C)[C@@H](C)O [MICROPEPTIN 103] |  |
